Experimental data taken from ChEMBL document CHEMBL1201862, “PubChem BioAssay data set” (2004).
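Dose response: 5 concentrations. Exposure: 48 h. Format: 96-well plates. Endpoint: linear interpolation; highest concentration if not reached. GI50 = concentration required for 50% inhibition of growth.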 Active and inactive are the calls of the source. Rule as the data show it: active = GI50 up to about 1.1 µM and inactive = higher.

Tests used:
Assay in all cases: NCI tumour cell line growth inhibition, 48 h
[1] = tested on: COLO 205
[2] = tested on: IGROV-1
[3] = tested on: KM12
[4] = tested on: NCI-H522
[5] = tested on: SK-MEL-28
[6] = tested on: SW-620
[7] = tested on: XF498
[8] = tested on: ACHN
[9] = tested on: HCT-15
[10] = tested on: HL-60
[11] = tested on: HOP-18
[12] = tested on: KM-20L2
[13] = tested on: LXFL 529
[14] = tested on: RPMI-8226
[15] = tested on: SN12C
[16] = tested on: UACC-257

Q: With `C=CCN1C(=O)NC(=O)/C(=C/c2c3ccccc3cc3ccccc23)C1=O` as the compound, how does the GI50 [1] read?
A: The GI50 was 19.9 µM (inactive).

Q: And the GI50 [2]?
A: The GI50 was > 10 µM (inactive).

Q: What about the GI50 [3] of the same compound?
A: The GI50 was 16.2 µM (inactive).

Q: And the GI50 [4]?
A: Its GI50 is 20.2 µM (inactive).

Q: And the GI50 [5]?
A: Its GI50 is 22.4 µM (inactive).

Q: What about the GI50 [6] of the same compound?
A: Its GI50 is 35.7 µM (inactive).

Q: And the GI50 [7]?
A: The GI50 was 21.8 µM (inactive).

Q: What does the source list for `CN1Cc2ccccc2C2(COc3ccccc3C2=O)C1` (centres undefined)?
A: GI50 [8]: > 100 µM (inactive); GI50 [9]: > 100 µM; GI50 [10]: 48.9 µM (inactive); GI50 [11]: > 100 µM (inactive); GI50 [2]: 28.7 µM (inactive); GI50 [12]: > 100 µM (inactive); GI50 [13]: 76.6 µM (inactive); GI50 [4]: 98.2 µM (inactive); GI50 [14]: 68.7 µM (inactive); GI50 [15]: > 100 µM (inactive); GI50 [6]: > 100 µM (inactive); GI50 [16]: 62.7 µM (inactive)
